Assay results taken from patent publication US20100022582A1, “Tetrahydroisoquinoline Compound and Medicinal Use Thereof” (priority 2005, published 2010).

Columns and labels:
liver ACAT = experiment: ACAT inhibitory activity (rabbit liver microsome, cholesteryl oleate production); type: biochemical, Japanese white rabbits; settings: 37° C. for 20 min
Protocol: Male Japanese white rabbits (body weight 2-2.5 kg) were bred on 100 g of a high cholesterol feed (feed added with cholesterol 1%, CLEA Japan, Inc.) daily for 4 weeks and sacrificed by exsanguination under anesthesia. The liver was removed, homogenated and centrifuged at 10,000 rpm and 4° C. for 15 min. The obtained supernatant was further centrifuged at 41,000 rpm and 4° C. for 60 min to give a microsome fraction. To a 0.15 M phosphate buffer were added the microsome suspension as an enzyme specimen, dimethyl sulfoxide (DMSO) or a solution (3 μL) of a test compound in DMSO and [1-14C]-oleoyl-CoA to be a reaction substrate to the total amount of 300 μL. After incubation at 37° C. for 20 min, a mixed solution of chloroform-methanol was added to quench the reaction. Water was added thereto and mixed, and the chloroform layer was separated. The solvent was evaporated to dryness and the residue was redissolved in n-hexane. The resulting solution was subjected to thin layer chromatography using a silica gel plate. The spot of cholesteryl oleate on the silica gel plate was scraped and quantified on a liquid scintillation counter. The ACAT inhibitory activity of the test compound is shown in cholesteryl oleate production inhibitory rate (%) [level of inhibition of cholesteryl oleate production as compared to the control].

[1] = tested on: brain homogenate lipid peroxidation; experiment: Lipid peroxidation-inhibitory action (brain homogenate, MDA); type: biochemical, SD rat; settings: rat brain homogenate, 37° C. for 30 min
Protocol: The brain was removed from male SD rat, and a 50 mM phosphate buffer (pH 7.4, 5-fold amount of brain weight) was added. The mixture was homogenized under ice-cooling for 30 sec, and centrifuged at 4° C., 3200 rpm for 10 min. The supernatant was diluted 5-fold with 50 mM phosphate buffer to give a brain homogenate. A test compound (10 μL) was placed in a glass test tube, the brain homogenate (1 mL) was added, and the mixture was incubated at 37° C. for 30 min. 20% Trichloroacetic acid (1 mL) was added to quench the reaction. The reaction mixture was centrifuged at room temperature, 4000 rpm for 10 min. Thiobarbituric acid (0.2 mL) was added to the supernatant (1 mL) and the mixture was heated at 95° C. for 15 min. The absorbance at 532 nm was measured, and lipid peroxide was quantified as malondialdehyde (MDA). The MDA level was compared between the control and the test compound-added sample, and the lipid peroxidation inhibitory rate was calculated.

[2] = tested on: THP-1 cell-derived macrophage; experiment: Cholesterol ester accumulation-inhibitory activity (THP-1 cell-derived macrophage foam cell formation); type: cell-based; settings: THP-1 macrophage, acetyl LDL, 3 days
Protocol: THP-1 cells (DAINIPPON PHARMACEUTICAL CO., LTD.) were subcultured in RPMI-1640 medium containing 10% fetal calf serum (FBS), and cells at 6-13th passage after purchase were used. The cells were suspended in FBS-containing RPMI-1640 medium to give a suspension having a concentration of 4×10^5 cells/mL. The cell suspension was seeded on 12-well microplate by 1 mL, and treated with phorbol 12-myristate 13-acetate (PMA, 200 nM) as a differentiation inducer into macrophage. Then, acetyl LDL (400 μg/mL) separately prepared from LDL derived from plasma of a rabbit with genetic hyperlipidemia (KHC rabbit, Japan Laboratory Animals Inc.) was added. A test compound further dissolved in dimethyl sulfoxide (DMSO) and diluted with FBS-containing RPMI-1640 medium and a control solvent were applied. After cultivation in a carbon dioxide incubator for 3 days, the cells were washed with phosphate-buffered saline (pH 7.0), and the lipid was extracted with hexane-isopropanol (3:2). In addition, the cells were lysed with 1N-NaOH, and the protein content was measured. Free cholesterol and cholesterol ester in the lipid extraction sample were measured according to the method of Kunitomo et al. [Japan. J. Pharmacol., 34, 153-158 (1984)]. Cholesterol esters in the control cells and the cells treated with the test compound were compared, and the cholesterol ester accumulation inhibitory rate of the test compound was calculated.

Row | SMILES | liver ACAT inhibition rate (%) (concentration: 10^−6 M) (liver ACAT) | inhibitory rate (%) (10^−4M), lipid peroxidation [1] | cholesteryl ester accumulation inhibitory rate (%) (concentration: 10^−6 M) [2]
1 | CCCCCCCC(=O)N1Cc2ccccc2C[C@H]1C(=O)Nc1c(C(C)C)cccc1C(C)C [Example 3, N-(2,6-diisopropylphenyl)-2-octanoyl-1,2,3,4-tetrahydroisoquinoline-(3S)-carboxamide] | 93.3 |  | 
2 | CCCCCCCC(=O)N1Cc2ccccc2C[C@H]1C(=O)Nc1c(C)cc(C)cc1C [Example 9, 2-octanoyl-N-(2,4,6-trimethylphenyl)-1,2,3,4-tetrahydroisoquinoline-(3S)-carboxamide] | 88.6 |  | 
3 | CCCCC(=O)N1Cc2ccccc2C[C@H]1C(=O)Nc1cc(C(C)(C)C)c(O)c(C(C)(C)C)c1 [Example 13, N-(3,5-di-tert-butyl-4-hydroxyphenyl)-2-pentanoyl-1,2,3,4-tetrahydroisoquinoline-(3S)-carboxamide] |  | 100.1 | 
4 | CCC(C)(C)C(=O)N1Cc2ccccc2C[C@H]1C(=O)Nc1c(C)cc(C)c(NS(C)(=O)=O)c1C [Example 19, 2-(2,2-dimethylbutyryl)-N-(3-methanesulfonylamino-2,4,6-trimethylphenyl)-1,2,3,4-tetrahydroisoquinoline-(3S)-carboxamide] |  |  | 66.4
5 | CCCCCCCC(=O)N1Cc2ccccc2C[C@@H]1C(=O)Nc1c(C)cc(C)cc1C [Example 26, 2-octanoyl-N-(2,4,6-trimethylphenyl)-1,2,3,4-tetrahydroisoquinoline-(3R)-carboxamide] | 83.8 |  | 
6 | CCCCCCCC(=O)N1Cc2ccccc2C[C@H]1C(=O)Nc1cc(C)c(O)c(C)c1C [Example 49, N-(4-hydroxy-2,3,5-trimethylphenyl)-2-octanoyl-1,2,3,4-tetrahydroisoquinoline-(3S)-carboxamide] | 96.8 |  | 
7 | CCCC(=O)N1Cc2cc(N(C)C)ccc2C[C@H]1C(=O)Nc1cc(C)c(O)c(C)c1C.Cl [Example 71, 2-butyryl-7-dimethylamino-N-(4-hydroxy-2,3,5-trimethylphenyl)-1,2,3,4-tetrahydroisoquinoline-(3S)-carboxamide hydrochloride] |  |  | 79.2
8 | CCCCCC(=O)N1Cc2cc(N(C)C)ccc2C[C@@H]1C(=O)Nc1cc(C)c(O)c(C)c1C.Cl [Example 74, 7-dimethylamino-2-hexanoyl-N-(4-hydroxy-2,3,5-trimethylphenyl)-1,2,3,4-tetrahydroisoquinoline-(3R)-carboxamide hydrochloride] |  |  | 74.7
9 | CCC(C)(C)C(=O)N1Cc2cc(N(C)C)ccc2C[C@@H]1C(=O)Nc1cc(C)c(O)c(C)c1C.Cl [Example 75, 7-dimethylamino-2-(2,2-dimethylbutyryl)-N-(4-hydroxy-2,3,5-trimethylphenyl)-1,2,3,4-tetrahydroisoquinoline-(3R)-carboxamide hydrochloride] | 88.8 |  | 93.4
10 | CCCCCCCC(=O)N1Cc2cc(N(C)C)ccc2C[C@H]1C(=O)Nc1c(C)cc(C)cc1C [Example 76, 7-dimethylamino-2-octanoyl-N-(2,4,6-trimethylphenyl)-1,2,3,4-tetrahydroisoquinoline-(3S)-carboxamide] | 76.7 |  | 
11 | CCCCCC(=O)N1Cc2cc(N)ccc2C[C@H]1C(=O)Nc1cc(C)c(O)c(C)c1C.Cl [Example 80, 7-amino-2-hexanoyl-N-(4-hydroxy-2,3,5-trimethylphenyl)-1,2,3,4-tetrahydroisoquinoline-(3S)-carboxamide hydrochloride] | 93.4 |  | 94.5
12 | CCCCCC(=O)N1Cc2cc(N(C)C)ccc2C[C@H]1C(=O)Nc1cc(C)c(O)c(C)c1C.Cl [Example 83, 7-dimethylamino-2-hexanoyl-N-(4-hydroxy-2,3,5-trimethylphenyl)-1,2,3,4-tetrahydroisoquinoline-(3S)-carboxamide hydrochloride] | 97.0 |  | 100.2
13 | CCC(=O)N1Cc2cc(N3CCCC3)ccc2C[C@H]1C(=O)Nc1cc(C)c(O)c(C)c1C.Cl [Example 91, N-(4-hydroxy-2,3,5-trimethylphenyl)-2-propionyl-7-(pyrrolidin-1-yl)-1,2,3,4-tetrahydroisoquinoline-(3S)-carboxamide hydrochloride] |  |  | 71.1
14 | Cc1cc(NC(=O)[C@@H]2Cc3ccc(N4CCCC4)cc3CN2C(=O)C(C)C)c(C)c(C)c1O.Cl [Example 93, N-(4-hydroxy-2,3,5-trimethylphenyl)-2-isobutyryl-7-(pyrrolidin-1-yl)-1,2,3,4-tetrahydroisoquinoline-(3S)-carboxamide hydrochloride] |  |  | 83.4
15 | CCCCCC(=O)N1Cc2cc(NS(C)(=O)=O)ccc2C[C@H]1C(=O)Nc1cc(C)c(O)c(C)c1C [Example 95, 2-hexanoyl-N-(4-hydroxy-2,3,5-trimethylphenyl)-7-methanesulfonylamino-1,2,3,4-tetrahydroisoquinoline-(3S)-carboxamide] |  |  | 80.4
16 | CCC(C)(C)C(=O)N1Cc2cc(N)ccc2C[C@H]1C(=O)Nc1cc(C)c(O)c(C)c1C.Cl [Example 104, 7-amino-2-(2,2-dimethylbutyryl)-N-(4-hydroxy-2,3,5-trimethylphenyl)-1,2,3,4-tetrahydroisoquinoline-(3S)-carboxamide hydrochloride] | 80.6 |  | 77.3
17 | Cc1cc(NC(=O)[C@@H]2Cc3ccc(NS(C)(=O)=O)cc3CN2C(=O)CC(C)(C)C)c(C)c(C)c1O [Example 106, 2-(3,3-dimethylbutyryl)-N-(4-hydroxy-2,3,5-trimethylphenyl)-7-methanesulfonylamino-1,2,3,4-tetrahydroisoquinoline-(3S)-carboxamide] | 89.6 |  | 76.9
18 | CCCCCC(=O)N1Cc2cc(O)ccc2C[C@H]1C(=O)Nc1c(C(C)C)cc(N)cc1C(C)C.Cl [Example 114, N-(4-amino-2,6-diisopropylphenyl)-2-hexanoyl-7-hydroxy-1,2,3,4-tetrahydroisoquinoline-(3S)-carboxamide hydrochloride] | 87.5 |  | 
19 | CCCCCC(=O)N1Cc2cc(O)ccc2C[C@H]1C(=O)Nc1cc(C)c(O)c(C)c1C [Example 116, 2-hexanoyl-7-hydroxy-N-(4-hydroxy-2,3,5-trimethylphenyl)-1,2,3,4-tetrahydroisoquinoline-(3S)-carboxamide] | 97.2 |  | 
20 | CCCCCC(=O)N1Cc2cc(OCCN3CCCC3)ccc2C[C@H]1C(=O)Nc1cc(C)c(O)c(C)c1C.Cl [Example 118, 2-hexanoyl-N-(4-hydroxy-2,3,5-trimethylphenyl)-7-[2-(pyrrolidin-1-yl)ethoxy]-1,2,3,4-tetrahydroisoquinoline-(3S)-carboxamide hydrochloride] |  |  | 68.6
21 | CCCCCC(=O)N1Cc2cc(OCCCO)ccc2C[C@H]1C(=O)Nc1cc(C)c(O)c(C)c1C [Example 119, 2-hexanoyl-7-(3-hydroxypropoxy)-N-(4-hydroxy-2,3,5-trimethylphenyl)-1,2,3,4-tetrahydroisoquinoline-(3S)-carboxamide] |  |  | 84.5
22 | CCCCCC(=O)N1Cc2cc(N3CCNCC3)ccc2C[C@H]1C(=O)Nc1cc(C)c(O)c(C)c1C [Example 121, 2-hexanoyl-N-(4-hydroxy-2,3,5-trimethylphenyl)-7-(piperazin-1-yl)-1,2,3,4-tetrahydroisoquinoline-(3S)-carboxamide] |  |  | 86.8
